{"source": "patent EP0264038A1", "about": "“Cytostatics containing glycidyl groups” (Henkel Kommanditgesellschaft auf Aktien, priority 1986, dated 1988)", "test_system": "Tumorart P 388 (Leukämie)", "test": "Cytostatic activity: survival of mice with i.p. implanted P 388 leukemia (NCI protocol 1200)", "assay_type": "in vivo, Mäusen", "conditions": "9-day treatment, P 388 set i.p. with 10⁶ Zellen/Maus, untreated mean survival 10 days", "description": "Die nachfolgenden Versuche wurden durchgeführt nach Testvorschriften des National Cancer Institute Bethesda, Maryland 200014, veröffentlicht in \"Cancer Chemotherapy Reports\" Part. 3, Sept. 1972, Vol. 3, Nr. 2.\nDie Substanz wurde als wäßrige 1 %ige Injektionslösung unmittelbar vor der Applikation frisch hergestellt.\nBei Mäusen wurden gemäß Protokoll 1200 (S. 91 c) die Tumorart P 388 (Leukämie) i.p. mit 10⁶ Zellen/Maus gesetzt. Die unbehandelten Tiere hatten eine mittlere Überlebensdauer von 10 Tagen.\nMit den behandelten Testtieren, die einer 9-tägigen i.p. Behandlung mit der in Tabelle 1 angegebenen Dosis unterworfen wurden, wurde eine signifikante Verlängerung der Lebensdauer gegenüber der mittleren Überlebensdauer der nicht mit dem Wirkstoff behandelten Tiere erzielt. Die Verlängerungsrate T/C in Abhängigkeit von der Dosierung des Wirkstoffes ist nachtstehend tabellarisch zusammengestellt.", "data": [{"smiles": "O=P(CC1CO1)(CC1CO1)CC1CO1", "note": "(stereo not drawn) [Triglycidylphosphinoxid]", "values": [{"measurement": "Verlängerungsrate T/C in %", "setting": "Dosis 15 mg/kg", "value": 243, "unit": "%"}, {"measurement": "Verlängerungsrate T/C in %", "setting": "Dosis 3,75 mg/kg", "value": 163, "unit": "%"}, {"measurement": "Verlängerungsrate T/C in %", "setting": "Dosis 7,5 mg/kg", "value": 176, "unit": "%"}]}]}
